Results as given in the NIST ThermoML archive (doi:10.1016/j.fluid.2016.02.031).
Numbers after ± are expanded uncertainties.

Assay: xn = mol fraction of the nth substance listed
Conditions: 100 kPa, Liquid; for viscosity: Concentric cylinders viscometry; for mass density: Vibrating tube method

OCCCO [propan-1,3-diol] + CCC(C)=O
Conditions | mass density [kg/m3] | viscosity [mPa·s]
288.15 K, x1 = 0.1052 | 834.263 ± 0.2 | 0.5783 ± 0.0079
288.15 K, x1 = 0.2004 | 855.981 ± 0.2 | 0.8238 ± 0.01
288.15 K, x1 = 0.3002 | 879.545 ± 0.2 | 1.258 ± 0.015
288.15 K, x1 = 0.4003 | 904.311 ± 0.2 | 2.132 ± 0.024
288.15 K, x1 = 0.4999 | 929.443 ± 0.19 | 3.633 ± 0.04
288.15 K, x1 = 0.5992 | 954.483 ± 0.19 | 6.313 ± 0.069
288.15 K, x1 = 0.6992 | 979.932 ± 0.18 | 11.18 ± 0.12
288.15 K, x1 = 0.7989 | 1003.76 ± 0.18 | 20.31 ± 0.22
288.15 K, x1 = 0.8998 | 1028.39 ± 0.19 | 37.46 ± 0.41
288.15 K, x1 = 1 | 1055.96 ± 0.19 | 68.06 ± 0.75
293.15 K, x1 = 0.1052 | 829.229 ± 0.21 | 0.5513 ± 0.0076
293.15 K, x1 = 0.2004 | 851.106 ± 0.2 | 0.7652 ± 0.0097
293.15 K, x1 = 0.3002 | 874.858 ± 0.2 | 1.144 ± 0.014
293.15 K, x1 = 0.4003 | 899.864 ± 0.2 | 1.889 ± 0.022
293.15 K, x1 = 0.4999 | 925.2 ± 0.19 | 3.143 ± 0.035
293.15 K, x1 = 0.5992 | 950.438 ± 0.19 | 5.35 ± 0.059
293.15 K, x1 = 0.6992 | 976.1 ± 0.19 | 9.291 ± 0.1
293.15 K, x1 = 0.7989 | 1000.12 ± 0.18 | 16.48 ± 0.18
293.15 K, x1 = 0.8998 | 1024.96 ± 0.19 | 29.8 ± 0.32
293.15 K, x1 = 1 | 1052.87 ± 0.19 | 52.75 ± 0.55
298.15 K, x1 = 0.1052 | 824.172 ± 0.21 | 0.5185 ± 0.0073
298.15 K, x1 = 0.2004 | 846.22 ± 0.2 | 0.714 ± 0.0092
298.15 K, x1 = 0.3002 | 870.166 ± 0.2 | 1.046 ± 0.013
298.15 K, x1 = 0.4003 | 895.391 ± 0.2 | 1.688 ± 0.019
298.15 K, x1 = 0.4999 | 920.936 ± 0.19 | 2.744 ± 0.031
298.15 K, x1 = 0.5992 | 946.376 ± 0.19 | 4.578 ± 0.05
298.15 K, x1 = 0.6992 | 972.256 ± 0.19 | 7.804 ± 0.085
298.15 K, x1 = 0.7989 | 996.448 ± 0.18 | 13.57 ± 0.15
298.15 K, x1 = 0.8998 | 1021.51 ± 0.19 | 24.01 ± 0.26
298.15 K, x1 = 1 | 1049.76 ± 0.19 | 41.97 ± 0.45
303.15 K, x1 = 0.1052 | 819.09 ± 0.21 | 0.4891 ± 0.007
303.15 K, x1 = 0.2004 | 841.328 ± 0.2 | 0.6674 ± 0.0088
303.15 K, x1 = 0.3002 | 865.461 ± 0.2 | 0.9604 ± 0.012
303.15 K, x1 = 0.4003 | 890.9 ± 0.2 | 1.517 ± 0.018
303.15 K, x1 = 0.4999 | 916.653 ± 0.19 | 2.414 ± 0.027
303.15 K, x1 = 0.5992 | 942.296 ± 0.19 | 3.957 ± 0.044
303.15 K, x1 = 0.6992 | 968.392 ± 0.19 | 6.624 ± 0.072
303.15 K, x1 = 0.7989 | 992.685 ± 0.18 | 11.3 ± 0.12
303.15 K, x1 = 0.8998 | 1018 ± 0.19 | 19.67 ± 0.21
303.15 K, x1 = 1 | 1046.64 ± 0.19 | 33.56 ± 0.36
308.15 K, x1 = 0.1052 | 813.976 ± 0.21 | 0.4633 ± 0.0068
308.15 K, x1 = 0.2004 | 836.391 ± 0.2 | 0.6247 ± 0.0083
308.15 K, x1 = 0.3002 | 860.732 ± 0.2 | 0.8841 ± 0.011
308.15 K, x1 = 0.4003 | 886.382 ± 0.2 | 1.379 ± 0.016
308.15 K, x1 = 0.4999 | 912.346 ± 0.2 | 2.141 ± 0.024
308.15 K, x1 = 0.5992 | 938.196 ± 0.19 | 3.447 ± 0.038
308.15 K, x1 = 0.6992 | 964.512 ± 0.19 | 5.663 ± 0.062
308.15 K, x1 = 0.7989 | 989.056 ± 0.18 | 9.517 ± 0.1
308.15 K, x1 = 0.8998 | 1014.59 ± 0.19 | 16.21 ± 0.18
308.15 K, x1 = 1 | 1043.5 ± 0.18 | 27.15 ± 0.29
313.15 K, x1 = 0.1052 | 808.832 ± 0.21 | 0.4382 ± 0.0066
313.15 K, x1 = 0.2004 | 831.418 ± 0.21 | 0.5847 ± 0.008
313.15 K, x1 = 0.3002 | 855.978 ± 0.2 | 0.8163 ± 0.01
313.15 K, x1 = 0.4003 | 881.838 ± 0.2 | 1.237 ± 0.015
313.15 K, x1 = 0.4999 | 908.015 ± 0.2 | 1.909 ± 0.022
313.15 K, x1 = 0.5992 | 934.073 ± 0.19 | 3.025 ± 0.034
313.15 K, x1 = 0.6992 | 960.613 ± 0.19 | 4.879 ± 0.053
313.15 K, x1 = 0.7989 | 985.317 ± 0.18 | 8.064 ± 0.088
313.15 K, x1 = 0.8998 | 1011.06 ± 0.19 | 13.49 ± 0.15
313.15 K, x1 = 1 | 1040.35 ± 0.18 | 22.22 ± 0.24
318.15 K, x1 = 0.1052 | 803.661 ± 0.21 | 0.4141 ± 0.0064
318.15 K, x1 = 0.2004 | 826.427 ± 0.21 | 0.548 ± 0.0076
318.15 K, x1 = 0.3002 | 851.191 ± 0.2 | 0.7557 ± 0.0097
318.15 K, x1 = 0.4003 | 877.271 ± 0.2 | 1.127 ± 0.013
318.15 K, x1 = 0.4999 | 903.664 ± 0.2 | 1.711 ± 0.02
318.15 K, x1 = 0.5992 | 929.93 ± 0.19 | 2.671 ± 0.03
318.15 K, x1 = 0.6992 | 956.69 ± 0.19 | 4.237 ± 0.047
318.15 K, x1 = 0.7989 | 981.556 ± 0.19 | 6.885 ± 0.075
318.15 K, x1 = 0.8998 | 1007.51 ± 0.19 | 11.33 ± 0.12
318.15 K, x1 = 1 | 1037.18 ± 0.18 | 18.35 ± 0.2
323.15 K, x1 = 0.1052 | 798.453 ± 0.21 | 0.3908 ± 0.0062
323.15 K, x1 = 0.2004 | 821.409 ± 0.21 | 0.5165 ± 0.0073
323.15 K, x1 = 0.3002 | 846.386 ± 0.2 | 0.7008 ± 0.0091
323.15 K, x1 = 0.4003 | 872.674 ± 0.2 | 1.03 ± 0.013
323.15 K, x1 = 0.4999 | 899.282 ± 0.2 | 1.542 ± 0.018
323.15 K, x1 = 0.5992 | 925.759 ± 0.19 | 2.372 ± 0.027
323.15 K, x1 = 0.6992 | 952.744 ± 0.19 | 3.702 ± 0.041
323.15 K, x1 = 0.7989 | 977.808 ± 0.19 | 5.939 ± 0.065
323.15 K, x1 = 0.8998 | 1004.01 ± 0.19 | 9.603 ± 0.1
323.15 K, x1 = 1 | 1033.98 ± 0.18 | 15.29 ± 0.17
328.15 K, x1 = 0.1052 | 793.206 ± 0.21 | 0.3682 ± 0.0059
328.15 K, x1 = 0.2004 | 816.363 ± 0.21 | 0.484 ± 0.007
328.15 K, x1 = 0.3002 | 841.54 ± 0.2 | 0.6507 ± 0.0086
328.15 K, x1 = 0.4003 | 868.041 ± 0.2 | 0.9438 ± 0.012
328.15 K, x1 = 0.4999 | 894.87 ± 0.2 | 1.393 ± 0.016
328.15 K, x1 = 0.5992 | 921.56 ± 0.19 | 2.121 ± 0.024
328.15 K, x1 = 0.6992 | 948.774 ± 0.19 | 3.257 ± 0.036
328.15 K, x1 = 0.7989 | 974.119 ± 0.19 | 5.165 ± 0.056
328.15 K, x1 = 0.8998 | 1000.59 ± 0.18 | 8.217 ± 0.089
328.15 K, x1 = 1 | 1030.77 ± 0.18 | 12.84 ± 0.14
333.15 K, x1 = 0.1052 | 787.917 ± 0.21 | 0.3461 ± 0.0058
333.15 K, x1 = 0.2004 | 811.298 ± 0.21 | 0.4456 ± 0.0066
333.15 K, x1 = 0.3002 | 836.659 ± 0.21 | 0.6058 ± 0.0082
333.15 K, x1 = 0.4003 | 863.375 ± 0.2 | 0.8671 ± 0.011
333.15 K, x1 = 0.4999 | 890.43 ± 0.2 | 1.271 ± 0.015
333.15 K, x1 = 0.5992 | 917.332 ± 0.2 | 1.911 ± 0.022
333.15 K, x1 = 0.6992 | 944.777 ± 0.19 | 2.894 ± 0.032
333.15 K, x1 = 0.7989 | 970.698 ± 0.19 | 4.581 ± 0.05
333.15 K, x1 = 0.8998 | 997.503 ± 0.18 | 7.128 ± 0.077
333.15 K, x1 = 1 | 1027.53 ± 0.18 | 10.96 ± 0.12
